In PMC11304236, “A Novel Drug Candidate for Sepsis Targeting Heparanase by Inhibiting Cytokine Storm” (Advanced Science, 2024):

How the values were obtained:
LPS-induced septic mice [1] = assay: Treadmill vitality test of LPS-induced septic mice; type: in vivo, mouse; settings: LPS-treated mice
Source text: To further assess the protective effect of CV122 in LPS‐induced septic mice, we assessed the vitality of the mice with or without CV122 treatment by treadmill (Figure 2I).

LPS-induced septic mice [2] = settings: mouse, in vivo
[3] = system: M1 macrophages (F4/80+CD86+); assay: Flow cytometry of M1 macrophages in organs of LPS-induced septic mice; type: in vivo, mouse; settings: 12 h after LPS 40 mg/kg i.p.
Experimental: (§1) Each group of mice was euthanized 24 h after LPS injection, spleens were harvested, red blood cells were lysed to detect splenocyte apoptosis, and the ratio of CD3^+CD4^+ T cells, CD3^+CD8^+ T cells, CD3^−CD19^+ B cells in spleen cells and lymph nodes quantified. Antibodies were: FITC‐Annexin V and PI; APC‐CD3, FITC‐CD4, PE‐CD8a, and PE‐CD19. Each group of mice was euthanized 12 h after LPS injection, Lung, kidney, and spleens were harvested, red blood cells were lysed to detect the ratio of macrophages in multiple organs, Antibodies were: FITC anti‐mouse F4/80; APC anti‐mouse CD86. Flow cytometry was used to quantify the adhesion molecules ICAM‐1 and VCAM‐1 on the surface of RAW264.7 cells and HUVECs. CV122 (50 µM) was incubated with the cells for 3 h, LPS (5 µg mL^−1) and TNF‐α (20 ng mL^−1) were used to stimulate the cells for 1 h, and the cells were collected. FITC anti‐mouse CD54 antibody and AF647 anti‐mouse CD106 antibody were incubated for 30 min at room temperature in the dark, PBS was added at 1000 rpm, and the cells were centrifuged for 7 min. A 200‐mesh copper mesh was used to filter the cells into a flow cytometer, and a flow cytometer (BD Biosciences) was used for detection.
Figure S6. M1 macrophages in multiple organs of LPS-induced septic mice. […] All results are expressed as mean ± SD (n = 3), *p < 0.05,**p < 0.01, ***p < 0.001, ****p < 0.0001; ns, not significant. […]

[4] = system: splenocytes and lymph node cells; assay: Flow cytometry of splenocyte apoptosis and T/B cells in LPS-induced septic mice; type: in vivo, mouse; settings: 24 h after LPS
Experimental: as §1

HPA = HPA levels in LPS-stimulated RAW264.7 macrophages (immunofluorescence, western blotting); type: cell-based, mouse; settings: CV122 50 µM 3 h, then LPS 5 µg mL−1 1 h
Experimental: (§2) Lungs were harvested from LPS‐induced and CLP‐induced sepsis model mice, and frozen sections were prepared. HUVECs and RAW264.7 macrophages were incubated with CV122 for 3 h, and TNF‐α (20 ng mL^−1) and LPS (5 µg mL^−1) were used to stimulate cells for 1 h. Lung tissue, HUVECs, and RAW264.7 macrophages were fixed with 4% paraformaldehyde for 10 min before permeabilization with 0.5% Triton X‐100 for 10 min. The membrane was sealed with 4% skimmed milk powder and incubated at room temperature for 50 min. Primary antibodies were rabbit anti‐heparanase polyclonal antibodies overnight at 4 °C. The diluent of the secondary antibody FITC‐WGA‐lectin was kept at room temperature and protected from light for 1 h. Nuclei were stained with DAPI. After 120 s, images were acquired with a confocal microscope (LSM 800, Zeiss, Germany).
CV122 (50 µM) was incubated with HUVECs and RAW264.7 cells for 3 h, and LPS (5 µg mL^−1) and TNF‐α (20 ng mL^−1) were incubated for 1 h. Total protein was extracted with RIPA tissue/cell lysate solution. Lung tissues were collected and homogenized in cold RIPA buffer to obtain proteins. The BCA method was used to quantify protein. After full denaturing, proteins were separated by 10% SDS‐PAGE and transferred to PVDF membrane. […] Blots were developed with a chemiluminescent HRP substrate, and the protein bands were detected with a chemiluminescence imager (MiniChemi610).

HUVECs [5] = assay: Cell surface glycocalyx of TNF-α-stimulated HUVECs (WGA-FITC, atomic force microscopy); type: cell-based, human
Experimental: as §2
HUVECs and RAW264.7 cells in the logarithmic growth phase were digested, centrifuged, and then plated in a six‐well plate at a density of 1 × 10[5] cells per well. CV122 was incubated for 3 h, and cells were stimulated with LPS (5 µg mL^−1) and TNF‐α (20 ng mL^−1) for 5 h. Cell‐covered slides were carefully removed and placed on the stage of the atomic force microscope with needle parameters: elastic coefficient 0.4 N M^−1, sensitivity 65.63 nm V^−1, with otherwise the usual atomic force microscope (Bruker, Billerica, MA) parameters used.

lung tissue glycocalyx = assay: Cell surface glycocalyx in lung tissue of LPS-induced septic mice (WGA-FITC, lanthanum nitrate TEM); type: in vivo, mouse
Experimental: as §2
The endothelial glycocalyx was detected by electron microscopy. Mice were dissected and a needle was inserted into the left ventricle of the heart and perfused with lanthanum aldehyde, a solution consisting of 2% glutaraldehyde, 2% sucrose, 0.1 M sodium […] buffer (pH 7.3), and 2% lanthanum nitrate. Lanthanum was a trivalent cation that binds polysaccharide‐protein complexes with negatively charged glycoprotein parts.^[ [46] ^] The organs were cut into 1 mm^3 pieces and then the samples were fixed in lanthanide aldehyde fixative. […]

HUVECs [6] = assay: Cell survival assay (CCK-8) in HUVECs; type: cell-based, human; settings: 50 to 200 µM

Question: Which results are given for COC1OC(COS(=O)(=O)O)C(OC2OC(C(=O)O)C(OC3OC(COS(=O)(=O)O)C(OC4OC(C(=O)O)C(OC5OC(COS(=O)(=O)O)C(O)C(O)C5NS(=O)(=O)O)C(OS(=O)(=O)O)C4O)C(OS(=O)(=O)O)C3NS(=O)(=O)O)C(O)C2OS(=O)(=O)O)C(O)C1NS(=O)(=O)O (stereo not shown) [CV122]?
Answer: electric shocks needed in the first 100 m (LPS-induced septic mice [1]): reduced the electric shocks needed in the first 100 m; running distance and time to exhaustion (LPS-induced septic mice [1]): significantly increased the running distance and extended the time to exhaustion; total electric shocks until exhaustion (LPS-induced septic mice [1]): obviously increased the total electric shocks until exhaustion; AST, ALT, BUN in serum and MPO in lung tissue (LPS-induced septic mice [2]): returned to normal upon CV122 treatment, which was more effective than Suramin; kidney damage (H&E) (LPS-induced septic mice [2]): resolved by CV122; liver damage (H&E) (LPS-induced septic mice [2]): significantly improved by CV122; lung inflammation by micro-CT imaging (LPS-induced septic mice [2]): almost completely inhibit this progress; lung pathological damage (H&E) (LPS-induced septic mice [2]): significantly improved by CV122 administration; lung weight/body weight ratio (LPS-induced septic mice [2]): significantly decreased; lung wet–dry weight ratio (LPS-induced septic mice [2]): extremely significantly decreased; spleen pathological changes (H&E) (LPS-induced septic mice [2]): no pathological changes were observed in spleen tissue; percentage of M1 macrophages in kidneys and spleen [3]: significantly inhibited the percentage of M1 macrophages; percentage of M1 macrophages (F4/80+CD86+) in the lung ([3]; **p < 0.01): significantly reduced by CV122; CD3+CD4+ T cells and CD3+CD8+ T cells in spleen [4]: recovered by CV122 to close to control levels; CD3−CD19+ B cells in spleen and inguinal lymph nodes [4]: recovered upon treatment with CV122; splenocyte apoptosis (FITC-Annexin V and PI) [4]: significantly reduced apoptosis; HPA levels in macrophages (HPA): significantly inhibited HPA levels following LPS stimulation of macrophages; glycocalyx integrity by WGA-FITC fluorescence (HUVECs [5]): rescued glycocalyx integrity; glycocalyx structure / surface roughness by atomic force microscopy (HUVECs [5]): reduced glycocalyx damage and resulted in a smoother surface; cell surface glycocalyx in lung tissue by WGA-FITC (lung tissue glycocalyx): integrity of the glycocalyx was rescued; lanthanum nitrate staining of lung vascular endothelial glycocalyx (TEM) (lung tissue glycocalyx): significantly restored lanthanum nitrate staining; effect on survival of HUVECs (HUVECs [6]): no significant inhibitory effect
